According to patent US7759344B2, “Bis-aryl amide derivatives and methods of use” (priority 2007, dated 2010):

Molecular target: T1, c-Met (Homo sapiens, UniProt P08581)
T1 construct: A PCR product covering residues 1058-1365 of c-Met (c-Met kinase domain) is generated; made in house; host or cells: Baculovirus cells (baculovirus/insect-cell expression)
Test: c-Met Receptor Assay (HTRF kinase assay with GST-cMet (P) enzyme, gastrin and ATP)
Format: biochemical
Experimental: Cloning, Expression and Purification of c-Met Kinase Domain
Alternative purification of human GST-cMET from Baculovirus cells
The resin is washed with 10 column volumes (100 mL) of Lysis Buffer. […] The elution is collected as 15 mL fractions. Aliquots of the elution fractions are run on SDS PAGE (12% Tris Glycine gel, Invitrogen, #EC6005BOX). The gel is stained with 0.25% Coomassie Blue stain. Fractions with GST-cMET are concentrated with a Vivaspin 20 mL Concentrator (#VS2002; […]) to a final volume less than 2.0 ml. […] The GST-cMET is eluted with an isocratic run of the above buffer, with the eluent collected in 1.0 mL fractions. Fractions with significant OD280 readings are run on another 12% Tris Glycine gel. The peak tubes with GST-cMET are pooled and the OD280 is read with the column buffer listed above as the blank buffer. • Phosphorylation of the purified GST-cMET is performed by incubating the protein for 3 h at RT with the following:
After incubation, the solution is concentrated in a Vivaspin 20 ml Concentrator to a volume less than 2.00 ml. The solution is applied to the same Superdex 75 16/60 column used above after re-equilibration. The GST-cMET is eluted as described above. The elution fractions corresponding to the first eluted peak on the chromatogram are run on a 12% Tris Glycine gel, as above, to identify the fractions with GST-cMET. Fractions are pooled and the OD280 is read with the column buffer used as the blank.
A Kinase reaction Buffer is prepared as follows:
When the assay is carried out, freshly add:
The HTRF Buffer Contains: • 50 mM Tris-HCl (pH 7.5), 100 mM NaCl, 0.1% BSA, 0.05% Tween 20,5mM EDTA
Dilute GST-cMet (P) Enzyme in Kinase Buffer as Follows:
2. Assay Plate Preparation:
Then incubate the plate at RT for 30 min.
3. Prepare Gastrin and ATP working solution in kinase reaction buffer as follows:
Use Biomek FX to add 20 μl ATP and Gastrin working solution to the assay plate to start reaction, incubate the plate at RT for 1 h. 4. Transfer 5 μL reaction product at the end of 1 h into 80 μL HTRF buffer in black plate

T1 sequence (P08581 1058-1365): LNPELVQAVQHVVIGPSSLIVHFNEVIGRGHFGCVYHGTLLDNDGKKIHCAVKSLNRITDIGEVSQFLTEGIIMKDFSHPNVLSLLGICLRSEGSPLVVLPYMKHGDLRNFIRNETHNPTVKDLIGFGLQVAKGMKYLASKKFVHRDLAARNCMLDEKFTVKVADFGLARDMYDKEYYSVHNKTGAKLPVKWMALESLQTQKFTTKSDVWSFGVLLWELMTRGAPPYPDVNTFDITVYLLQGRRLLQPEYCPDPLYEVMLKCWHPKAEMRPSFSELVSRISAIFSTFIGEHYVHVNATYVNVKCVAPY

Row | Compound | Ki
1 | Cc1c(C(=O)Nc2ccc(-c3cccc4[nH]nc(N)c34)c(F)c2)c(=O)n(-c2ccccc2)n1C [Example 1, N-(4-(3-amino-1H-indazol-4-yl)-3-fluorophenyl)-1,5-dimethyl-3-oxo-2-phenyl-2,3-dihydro-1H-pyrazole-4-carboxamide] | 0.021 µM
2 | Cc1c(C(=O)Nc2ccc(-c3cccc4c(N)nccc34)c(F)c2)c(=O)n(-c2ccccc2)n1C [Example 2, N-(4-(1-amino-5-isoquinolinyl)-3-fluorophenyl)-1,5-dimethyl-3-oxo-2-phenyl-2,3-dihydro-1H-pyrazole-4-carboxamide] | 0.028 µM
3 | Cc1c(C(=O)Nc2ccc(-c3cccc4c(N)nccc34)c(F)c2)c(=O)n(-c2ccccc2)n1CC(C)(C)O [Example 3, N-(4-(1-amino-5-isoquinolinyl)-3-fluorophenyl)-1-(2-hydroxy-2-methylpropyl)-5-methyl-3-oxo-2-phenyl-2,3-dihydro-1H-pyrazole-4-carboxamide] | 0.056 µM
4 | Cc1c(C(=O)Nc2ccc(-c3cccc4cnccc34)c(F)c2)c(=O)n(-c2ccccc2)n1C [Example 4, N-(3-fluoro-4-(5-isoquinolinyl)phenyl)-1,5-dimethyl-3-oxo-2-phenyl-2,3-dihydro-1H-pyrazole-4-carboxamide] | 0.073 µM
5 | Cc1c(C(=O)Nc2ccc(-c3cccc4[nH]nc(N)c34)c(F)c2)c(=O)n(-c2ccccc2)n1CC(C)(C)O [Example 5, N-(4-(3-amino-1H-indazol-4-yl)-3-fluorophenyl)-1-(2-hydroxy-2-methylpropyl)-5-methyl-3-oxo-2-phenyl-2,3-dihydro-1H-pyrazole-4-carboxamide] | 0.085 µM
6 | Cc1c(C(=O)Nc2ccc(-c3cccc4cnccc34)c(F)c2)c(=O)n(-c2ccccc2)n1CC(C)(C)O [Example 6, N-(3-fluoro-4-(5-isoquinolinyl)phenyl)-1-(2-hydroxy-2-methylpropyl)-5-methyl-3-oxo-2-phenyl-2,3-dihydro-1H-pyrazole-4-carboxamide] | 0.142 µM
7 | Cc1c(C(=O)Nc2ccc(-c3cccc4cnccc34)cc2F)c(=O)n(-c2ccccc2)n1CC(C)(C)O [Example 7, N-(2-fluoro-4-(5-isoquinolinyl)phenyl)-1-(2-hydroxy-2-methylpropyl)-5-methyl-3-oxo-2-phenyl-2,3-dihydro-1H-pyrazole-4-carboxamide] | 0.156 µM
8 | Cc1c(C(=O)Nc2ccc(-c3cccc4[nH]nc(N)c34)cc2)c(=O)n(-c2ccccc2)n1CC(C)(C)O [Example 8, N-(4-(3-amino-1H-indazol-4-yl)phenyl)-1-(2-hydroxy-2-methylpropyl)-5-methyl-3-oxo-2-phenyl-2,3-dihydro-1H-pyrazole-4-carboxamide] | 0.252 µM
9 | Cc1c(C(=O)Nc2ccc(-c3nncc4cnccc34)c(F)c2)c(=O)n(-c2ccccc2)n1C [Example 9, N-(3-fluoro-4-pyrido[3,4-d]pyridazin-1-ylphenyl)-1,5-dimethyl-3-oxo-2-phenyl-2,3-dihydro-1H-pyrazole-4-carboxamide] | 2.38 µM
10 | Cc1cc(NC(=O)c2c(C)n(CC(C)(C)O)n(-c3ccccc3)c2=O)ccc1-c1cccc2cnccc12 [Example 10, 1-(2-Hydroxy-2-methylpropyl)-N-(4-(5-isoquinolinyl)-3-methylphenyl)-5-methyl-3-oxo-2-phenyl-2,3-dihydro-1H-pyrazole-4-carboxamide] | 0.373 µM
11 | Cc1c(C(=O)Nc2ccc(-c3cccc4cnccc34)c(F)c2)c(=O)n(-c2ccccc2)n1C[C@H](C)O [Example 11, N-(3-fluoro-4-(isoquinolin-5-yl)phenyl)-1-((S)-2-hydroxypropyl)-5-methyl-3-oxo-2-phenyl-2,3-dihydro-1H-pyrazole-4-carboxamide] | 0.047 µM
12 | Cc1c(C(=O)Nc2ccc(-c3cccc4cnccc34)c(F)c2)c(=O)n(-c2ccccc2)n1C[C@@H](C)O [Example 12, N-(3-fluoro-4-(isoquinolin-5-yl)phenyl)-1-((R)-2-hydroxypropyl)-5-methyl-3-oxo-2-phenyl-2,3-dihydro-1H-pyrazole-4-carboxamide] | 0.062 µM
13 | Cc1c(C(=O)Nc2ccc(-c3cccc4c(NCCCN5CCOCC5)nccc34)cc2)c(=O)n(-c2ccccc2)n1CC(C)(C)O [Example 13, 1-(2-hydroxy-2-methylpropyl)-5-methyl-N-(4-(1-(3-morpholinopropylamino)-isoquinolin-5-yl)phenyl)-3-oxo-2-phenyl-2,3-dihydro-1H-pyrazole-4-carboxamide] | 3.29 µM
14 | Cc1c(C(=O)Nc2ccc(-c3cccc4c(NCCN(C)C)nccc34)cc2)c(=O)n(-c2ccccc2)n1CC(C)(C)O [Example 14, N-(4-(1-(2-(dimethylamino)ethylamino)isoquinolin-5-yl)phenyl)-1-(2-hydroxy-2-methylpropyl)-5-methyl-3-oxo-2-phenyl-2,3-dihydro-1H-pyrazole-4-carboxamide] | > 20 µM
15 | Cc1c(C(=O)Nc2ccc(-c3cccc4c(N(C)CCN(C)C)nccc34)cc2)c(=O)n(-c2ccccc2)n1CC(C)(C)O [Example 15, N-(4-(1-((2-(dimethylamino)ethyl)(methyl)amino)isoquinolin-5-yl)phenyl)-1-(2-hydroxy-2-methylpropyl)-5-methyl-3-oxo-2-phenyl-2,3-dihydro-1H-pyrazole-4-carboxamide] | > 6.67 µM
16 | Cc1c(C(=O)Nc2ccc(-c3cccc4c(N(C)CCCN(C)C)nccc34)cc2)c(=O)n(-c2ccccc2)n1CC(C)(C)O [Example 16, N-(4-(1-((3-(dimethylamino)propyl)(methyl)amino)isoquinolin-5-yl)phenyl)-1-(2-hydroxy-2-methylpropyl)-5-methyl-3-oxo-2-phenyl-2,3-dihydro-1H-pyrazole-4-carboxamide] | 1.45 µM
